What was measured:
HCT116 MCS [1] = experiment: Pimonidazole staining of sectioned spheroids (indirect measure of respiration/hypoxia); format: cell-based
Procedure: (§1) HCT116 colon carcinoma cells were maintained in McCoy's 5A modified medium/10% fetal calf serum at 37° C. in 5% CO2. […] A cell suspension containing 10,000 cells (200 μl) was added to each well of poly-HEMA coated 96 well plates. The wells were then overfilled by adding an additional 170 μl media to acquire a convex surface curvature. Plasticine spacers (3 mm) were placed in the corners of each plate to prevent the lids from touching the media. The plates were then inverted in order to allow the cells to sediment to the liquid/air interface and incubated in gentle shaking. After 24 hrs incubation the plates were returned to normal. First excess media was removed by aspiration and then plasticine spacers. The plates were incubated for 4 days prior to drug treatment.
MCS produced by the hanging drop method in 96 well plates were fixed in paraformaldehyde, dehydrated, embedded in paraffin and sectioned. Each sample contained 32 MCS (MCS from each 96 well plate were pooled into 3 groups). The sections were deparaffinized with xylene, rehydrated and microwaved, and then incubated overnight with the monoclonal primary antibodies diluted in 1% (weight/volume) bovine serum albumin and visualized by standard avidin-biotin-peroxidase complex technique (Vector Laboratories, Burlingame, Calif., USA). Counterstaining was performed with Mayer's haematoxylin. […]

monolayer HCT116 cells = experiment: Proliferation / viability of monolayer HCT116 cells
Procedure: HCT116 MCS were treated for 6 hours with 6 μM CB21, followed by changing to drug-free medium and further incubation. MCS were sectioned and stained for active caspase-3. […] Cells were incubated for 30 minutes with EdU, fixed and analyzed by ArrayScan. […] Cells were seeded at 7,000 or 70,000 per well in 96 well plates in the presence or absence of CB21.
Cells were fixed and stained for LC3 after drug treatment at the times indicated. […] Cells were treated with 6 μM CB21 and/or 10 μM bafilomycin A and cells were photographed at the times Indicated. […] HCT116 cells were treated with 6 μM CB21 and/or 10 μM chloroquine. Cell proliferation was monitored by calculation of culture confluency.
HCT116 colon carcinoma cells were maintained in McCoy's 5A modified medium/10% fetal calf serum at 37° C. in 5% CO2. MCS were prepared using a modification of our previously described method (12). A cell suspension containing 10,000 cells (200 μl) was added to each well of poly-HEMA coated 96 well plates. The wells were then overfilled by adding an additional 170 μl media to acquire a convex surface curvature. […] Caspase cleaved keratin-18 (K18-Asp396) was determined using 25 mL medium/extract using the M30 CytoDeath ELISA assay (a variant of the M30-Apoptosense® ELISA (13) developed for in-vitro use (Peviva AB, Bromma, Sweden)). […]

LC3-I and LC3-II = experiment: LC3-I / LC3-II induction in HCT116 (western blot, LC3 staining); format: cell-based; conditions: for Induction of LC3-I and LC3-II: HCT116 cells
Procedure: FIG. 4B: Staining of CB21-treated cells with an antibody to LC3. […] Cells were treated for 6 hours (6 μM), and then incubated further. Protein were extracted and subjected to western blot analysis. […] FIGS. 4F-4H: Morphology of peripheral and core cells visualized by electron microscopy. MCS were treated for 6 hours with 6 μM C21 and incubated further in drug-free medium for the times indicated and sectioned.
MCSs contain mostly non-proliferating cells. […] The mechanism(s) of action was studied in more detail. […] LC3-II (the PE-conjugated form of LC3) is a protein marker regarded to be most reliably associated with autophagosomes (19).

HCT116 MCS [2] = format: cell-based
Procedure: Cell viability was determined using the acid phosphatase test.
as §1
Viability measurements were performed by the acid phosphatase (APH) method described by Friedrich et al. (14). Background activity was subtracted.

mTOR substrate 4EBP1 = experiment: Phosphorylation of mTOR substrate 4EBP1 and of AKT (western blot); conditions: HCT116 cells
Procedure: Cell extract proteins were resolved by Tris-Acetate PAGE gels (Invitrogen, Carlsbad, Calif.) and transferred onto a polyvinylidene difluoride (PVDF) membrane. The membranes were incubated overnight with antibodies, washed and incubated with HRP-conjugated anti-rabbit Ig (Amersham Biosciences, Little Chalfont, UK) for 1 h. Peroxidase activity was developed by SuperSignal West Pico (Pierce Biotechnology, Rockford, Ill.) according to manufacturer's instructions.

In the case of `N#CC(C#N)=NNc1cccc(Cl)c1` [CCCP, carbonylcyanide-3-chlorophenylhydrazone], the “Pimonidazole positive area (%)” value (HCT116 MCS [1]; 10 μM, 6 h) is reported as 79.9%.
With `CO/C1=C\C(C)=C\[C@@H](C)[C@@H](O)[C@@H](C)C/C(C)=C/C=C/[C@H](OC)[C@@H]([C@@H](C)[C@@H](O)[C@H](C)[C@@]2(O)C[C@@H](O)[C@H](C)[C@@H](C(C)C)O2)OC1=O` [bafilomycin A] the “time at which cytotoxicity was observed” value (monolayer HCT116 cells; HCT116, 10 μM bafilomycin A, 6 μM CB21) was about 72 h and the “appearance of large cytoplasmic LC3-II positive vesicles” value (LC3-I and LC3-II; HCT116 cells treated with CB21, 10 μM Bafilomycin A) was “suppresses the appearance of large cytoplasmic LC3-II positive vesicles”.
For `Cn1c(=O)n(-c2ccc(C(C)(C)C#N)cc2)c2c3cc(-c4cnc5ccccc5c4)ccc3ncc21` [NVP-BEZ235], the “viability of the cells in the core of the MCS” value (HCT116 MCS [2]) was “did not affect the viability”, the 4EBP1 phosphorylation (mTOR substrate 4EBP1) was “decrease” and the “Induction of LC3-I and LC3-II” value (LC3-I and LC3-II; 6 h) was “weak induction”. For the same compound, the “Induction of LC3-I and LC3-II” value (LC3-I and LC3-II; 24 h) was “no induction observed”.
With `CO[C@H]1C[C@@H]2CC[C@@H](C)[C@@](O)(O2)C(=O)C(=O)N2CCCC[C@H]2C(=O)O[C@H]([C@H](C)C[C@@H]2CC[C@@H](O)[C@H](OC)C2)CC(=O)[C@H](C)/C=C(\C)[C@@H](O)[C@@H](OC)C(=O)[C@H](C)C[C@H](C)/C=C/C=C/C=C/1C` [Rapamycin] the “Pimonidazole positive area (%)” value (HCT116 MCS [1]; 10 nM, 5 h) was 42.2%.
`CCN(CC)CCCC(C)Nc1ccnc2cc(Cl)ccc12` (stereo not drawn) [CQ, Chloroquine] was tested, and the “proliferation / cell death of monolayer HCT116 cells” value (monolayer HCT116 cells; 10 μM chloroquine, 6 μM CB21, culture confluency) was “no effect”.
